From PubChem BioAssay (NCI)
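The compound was tested at five concentrations on cells cultured in 96-well plates, with a 48-hour exposure period. GI50 = concentration required for 50% inhibition of growth. TGI marks complete inhibition of growth.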 Where a SMILES comes first, the peptide text is derived from it. The star is where a group is joined. ONb = O=[N+]([O-])c1ccc(CO*)cc1; Boc = CC(C)(C)OC(=O)*

Key:
Experiment in all cases: growth of human tumour cells (NCI), 48 h
[1] = test system: SW-620 colon
[2] = test system: HCC-2998 colon
[3] = test system: COLO 205 colon
[4] = test system: SN12C renal
[5] = test system: MDA-N
[6] = test system: RPMI-8226 leukemia
[7] = test system: DU-145 prostate
[8] = test system: M14 melanoma
[9] = test system: SF-295 CNS
[10] = test system: HS 578T breast

Compound	TGI [1]	TGI [2]	TGI [3]	TGI [4]	TGI [5]	TGI [6]	TGI [7]	TGI [8]	TGI [9]	TGI [10]	GI50 [2]	GI50 [3]	GI50 [4]	GI50 [10]	GI50 [6]	GI50 [7]	GI50 [1]	GI50 [8]	GI50 [9]
CCCCNC(=S)Nc1nc(C(=O)NNC(=S)NC2CCCCC2)cs1	> 100 µM	> 100 µM	> 100 µM	> 100 µM	> 100 µM	> 100 µM	> 100 µM	> 100 µM	> 100 µM	–	–	–	–	–	–	–	–	–	–
CC(C)(C)c1cc(C2=NN(c3ccccc3)C(c3ccccc3)C2)cc(C(C)(C)C)c1O (stereo not drawn)	> 100 µM	–	> 100 µM	> 100 µM	> 100 µM	> 100 µM	> 100 µM	> 100 µM	> 100 µM	> 100 µM	–	–	–	–	–	–	–	–	–
N#Cc1c(N)sc2c1-c1ccccc1OC2	> 100 µM	> 100 µM	> 100 µM	68.6 µM	67.1 µM	> 100 µM	> 100 µM	> 100 µM	–	–	–	–	–	–	–	–	–	–	–
N#CCCN(CCC#N)c1ccc(/C=C2\N=C(c3ccccc3)N(NC(N)=S)C2=O)cc1	> 100 µM	–	> 100 µM	> 100 µM	> 100 µM	> 100 µM	> 100 µM	> 100 µM	> 100 µM	> 100 µM	–	–	–	–	–	–	–	–	–
COc1cc(/C=C/C(=O)c2c(C)nc3ccccc3c2C)ccc1OCCCOc1cc2c(cc1OC)C(=O)N1CCC[C@H]1C=N2	–	0.0386 µM	0.0453 µM	0.327 µM	–	0.0477 µM	0.0802 µM	–	–	0.0577 µM	0.0183 µM	0.0211 µM	0.0353 µM	0.0209 µM	0.014 µM	0.0279 µM	–	–	–
CO/N=C(\C)COc1ccc2c(=O)c(-c3ccccc3)coc2c1	> 100 µM	–	32.4 µM	68.9 µM	–	> 100 µM	52.7 µM	> 100 µM	65.2 µM	> 100 µM	–	11.2 µM	30.1 µM	63.1 µM	> 100 µM	23.1 µM	> 100 µM	93.7 µM	31.9 µM
Cc1ccc(O)c(-c2cc(-c3cccc(Cl)c3)c(C#N)c(N)n2)c1	40.8 µM	–	32.3 µM	47.6 µM	37.8 µM	48.4 µM	> 100 µM	46.1 µM	32.6 µM	49.7 µM	–	–	–	–	–	–	–	–	–
N=c1c2c(-c3ccccc3)c[nH]c2ncn1N	> 100 µM	> 100 µM	> 100 µM	> 100 µM	> 100 µM	> 100 µM	–	> 100 µM	> 100 µM	–	–	–	–	–	–	–	–	–	–
CCCCCCCCCCCCCC[n+]1ccc2c(C)c3c(c(C)c2c1)c1cc(O)ccc1n3CC	–	1.81 µM	–	1.31 µM	–	1.99 µM	1.63 µM	–	1.08 µM	3.67 µM	0.435 µM	–	0.341 µM	0.975 µM	0.31 µM	0.381 µM	–	–	0.289 µM
Cc1cc(C)c2c(n1)S(=O)(=O)N(CCCN1CCN(c3cccc(C(F)(F)F)c3)CC1)c1c-2nn(C)c1C	> 100 µM	> 100 µM	> 100 µM	> 100 µM	> 100 µM	–	> 100 µM	> 100 µM	> 100 µM	> 100 µM	–	–	–	–	–	–	–	–	–
CN(C)c1ccccc1CN1CCCN(Cc2ccccc2N(C)C)C1c1ccncc1	42.2 µM	–	30.3 µM	62.2 µM	23.8 µM	32.1 µM	31.5 µM	8.62 µM	29.8 µM	41.8 µM	–	–	–	–	–	–	–	–	–
CC(C)[Si](OC1=CCC[C@H]2NC(=O)[C@@H](Cc3ccccc3)[C@@]12C)(C(C)C)C(C)C	9.16 µM	4.42 µM	6.35 µM	9.85 µM	14.2 µM	–	22.1 µM	24.7 µM	17.2 µM	18.5 µM	–	–	–	–	–	–	–	–	–
O=C(O)c1cn2c3c(cc(N4CCN(CCO)CC4)cc3c1=O)SCC2	> 100 µM	93.3 µM	> 100 µM	> 100 µM	–	> 100 µM	–	–	> 100 µM	–	–	–	–	–	–	–	–	–	–
COc1ccc(OC)c(CC2CCc3nc(N)nc(N)c3C2)c1 (stereo not drawn)	> 100 µM	> 49.9 µM	29.2 µM	> 100 µM	27.7 µM	> 100 µM	–	24.3 µM	27.7 µM	> 70.8 µM	–	–	–	–	–	–	–	–	–
Cc1cccnc1/N=C/c1c(O)n(C)c(=O)[nH]c1=O	> 100 µM	–	> 100 µM	> 100 µM	> 100 µM	–	> 100 µM	> 100 µM	> 100 µM	> 100 µM	–	–	–	–	–	–	–	–	–
CSCCCNC(=O)c1csc(-c2csc(C(CNC(=O)OC(C)(C)C)CNC(=O)OC(C)(C)C)n2)n1	> 100 µM	–	> 100 µM	> 100 µM	> 100 µM	41.7 µM	> 100 µM	> 100 µM	> 100 µM	> 100 µM	–	–	–	–	–	–	–	–	–
COc1ccc(C(SCCO)(c2ccccc2)c2ccccc2)cc1	81.8 µM	31.1 µM	27.5 µM	28.4 µM	26 µM	–	27 µM	21.3 µM	28.6 µM	59.2 µM	–	–	–	–	–	–	–	–	–

Compound	TGI [1]	TGI [2]	TGI [3]	TGI [4]	TGI [5]	TGI [6]	TGI [7]	TGI [8]	TGI [9]	TGI [10]	GI50 [2]	GI50 [3]	GI50 [4]	GI50 [10]	GI50 [6]	GI50 [7]	GI50 [1]	GI50 [8]	GI50 [9]
N#C/C(=C\c1cc(Cl)cc(Cl)c1)c1ccccn1	> 100 µM	> 100 µM	> 100 µM	> 100 µM	40.2 µM	> 100 µM	> 100 µM	> 100 µM	> 100 µM	–	–	–	–	–	–	–	–	–	–
O=S(=O)(O)ON=C1c2ccccc2-c2ccccc21	> 100 µM	> 100 µM	> 100 µM	> 100 µM	–	> 100 µM	> 100 µM	> 100 µM	> 100 µM	> 100 µM	–	–	–	–	–	–	–	–	–
O=C(/C=C/c1ccc(O)c(O)c1)c1cc(O)cc(O)c1	–	–	31.1 µM	26.2 µM	20.5 µM	> 100 µM	44.3 µM	26.9 µM	40.1 µM	70.5 µM	–	–	–	–	–	–	–	–	–
Nc1[nH]c(=S)nc2snnc12	> 100 µM	> 100 µM	> 100 µM	> 100 µM	> 100 µM	> 100 µM	> 100 µM	–	> 100 µM	> 100 µM	–	–	–	–	–	–	–	–	–
CCCCCCOP(=O)(OCCCCCC)C(NC(=O)OCC)(C(F)(F)F)C(F)(F)F	> 100 µM	–	32.3 µM	> 100 µM	> 100 µM	> 100 µM	> 100 µM	> 100 µM	> 100 µM	> 100 µM	–	–	–	–	–	–	–	–	–
COc1ccc2sc(-n3nc4ccccc4c3Nc3nc4ccc(OC)cc4s3)nc2c1	36.4 µM	5.47 µM	> 63.9 µM	18.5 µM	–	7.12 µM	17.9 µM	35.8 µM	12.8 µM	5.61 µM	–	–	–	–	–	–	–	–	–
Cn1/c(=N\S(=O)(=O)c2ccccc2)n(S(=O)(=O)c2ccccc2)c2ccccc21	> 100 µM	–	> 100 µM	> 100 µM	> 100 µM	> 100 µM	> 100 µM	> 100 µM	> 100 µM	> 100 µM	–	–	–	–	–	–	–	–	–
CN1CCC(CN2c3ccccc3Sc3ccccc32)CC1	28.6 µM	25.6 µM	27.1 µM	33.9 µM	–	30.7 µM	–	26 µM	29.3 µM	–	–	–	–	–	–	–	–	–	–
CC(C)CC(NC(=O)OC(C)(C)C)C(=O)NC(CCC(=O)OCc1ccc([N+](=O)[O-])cc1)C(=O)OCc1ccc([N+](=O)[O-])cc1 (stereo not drawn) (Boc-Leu-Glu(ONb)-ONb; configuration not given here)	> 100 µM	44.6 µM	> 100 µM	> 100 µM	> 100 µM	88.4 µM	44.9 µM	57.8 µM	> 100 µM	–	–	–	–	–	–	–	–	–	–
CN(C)c1ccc(C(Cc2ccc3ccccc3n2)Cc2ccc3ccccc3n2)cc1	–	–	–	–	–	–	> 100 µM	–	> 100 µM	> 100 µM	–	–	–	6.22 µM	–	> 100 µM	–	–	3.26 µM
CN1C(=O)[C@@H]2[C@@H]3c4ccccc4N(S(=O)(=O)C(F)(F)F)[C@@H]3c3[nH]c4ccccc4c3[C@@H]2C1=O	> 100 µM	> 100 µM	> 100 µM	> 100 µM	> 100 µM	> 100 µM	> 100 µM	–	> 100 µM	> 100 µM	–	–	–	–	–	–	–	–	–
O=C1/C(=C/c2ccc(Cl)cc2)N=C(c2ccccc2)N1CCc1cccs1	> 100 µM	> 100 µM	39.9 µM	> 100 µM	–	83.4 µM	> 100 µM	–	> 100 µM	> 100 µM	31.8 µM	16 µM	21.1 µM	20.3 µM	14.5 µM	42.7 µM	30.6 µM	–	17.7 µM
CCc1ccc2nc(-c3ccc(O)cc3)sc2c1	38 µM	–	28.6 µM	27.7 µM	36 µM	35.3 µM	28.9 µM	35.5 µM	30.6 µM	–	–	–	–	–	–	–	–	–	–
COC1(OC)CC(CO)(CNc2cc(Cl)nc(N)n2)C1	> 100 µM	> 100 µM	> 100 µM	> 100 µM	> 100 µM	> 100 µM	> 100 µM	–	> 100 µM	> 100 µM	–	–	–	–	–	–	–	–	–
Nc1nc(N)c2ncn(Cc3ccccc3CCl)c2n1	> 100 µM	–	> 100 µM	> 100 µM	–	> 100 µM	> 100 µM	> 100 µM	> 100 µM	> 100 µM	–	–	–	–	–	–	–	–	–
Cc1ccc(OC2CC(n3cnc4ncnc(Cl)c43)OC2Oc2ccc(C)cc2)cc1 (stereo not drawn)	> 100 µM	24.9 µM	46.5 µM	> 100 µM	> 100 µM	–	53.2 µM	65.8 µM	56.7 µM	76.9 µM	–	–	–	–	–	–	–	–	–
